Assay results taken from patent US6825185B2, “Substituted aryl compounds as novel cyclooxygenase-2 selective inhibitors, compositions and methods of use” (NitroMed, Inc., priority 2000, dated 2004).

Key:
[1] = biological target: T1, COX-2 (Homo sapiens, UniProt P35354); experiment: Human COX-2 enzyme activity (COX Inhibitor Screening Assay, prostaglandin EIA); format: biochemical; design: purchased Cayman Chemical; conditions: test compound at 10 μM
T1 sequence (P35354 18-604): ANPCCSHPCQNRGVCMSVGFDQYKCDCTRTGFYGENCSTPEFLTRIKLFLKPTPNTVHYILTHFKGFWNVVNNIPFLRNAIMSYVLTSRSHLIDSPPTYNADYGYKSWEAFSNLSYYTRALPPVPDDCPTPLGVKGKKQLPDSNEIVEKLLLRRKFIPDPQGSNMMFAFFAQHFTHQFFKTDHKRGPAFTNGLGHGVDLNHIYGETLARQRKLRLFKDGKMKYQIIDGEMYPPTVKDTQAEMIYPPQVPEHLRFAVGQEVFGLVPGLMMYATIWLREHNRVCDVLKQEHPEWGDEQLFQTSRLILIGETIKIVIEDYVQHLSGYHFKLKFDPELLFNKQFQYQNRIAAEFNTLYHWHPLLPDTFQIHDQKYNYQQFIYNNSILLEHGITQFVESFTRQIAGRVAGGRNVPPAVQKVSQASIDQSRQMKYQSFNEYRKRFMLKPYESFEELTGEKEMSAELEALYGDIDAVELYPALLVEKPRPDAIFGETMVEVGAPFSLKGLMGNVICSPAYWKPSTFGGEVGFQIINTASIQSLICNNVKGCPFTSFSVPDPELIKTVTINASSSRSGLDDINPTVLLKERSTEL
Method: (§1) The human COX-1 and COX-2 enzyme activities and the measurement of the prostaglandin products synthesized were performed using the COX Inhibitor Screening Assay (Cayman Chemical, Ann Arbor, Mich.), which also contained the Prostaglandin Screening EIA Kit, used for prostaglandin quantification). The test compounds were dissolved at 50 times the highest final reaction concentration in DMSO or any other suitable solvent as stock solutions. These stock solutions were then diluted in the same solvent. Eight glass test tubes (13×100 mm) were placed in a 25° C. water bath. To each test tube was added 950 μL of reaction buffer (0.1 M Tris-HCl, pH 8.0, containing 5 mM EDTA, and 2 mM phenol), 10 μL of 100 µM heme solution, and 10 μL (5 units) of either human COX-1 or COX-2 enzyme and the resulting mixture was incubated for 2 minutes. Twenty μL of the solvent was added to one tube (100% initial activity or solvent control) and 20 μL of each dilution of the test compound was added to one tube each. Each tube was vortexed immediately after the addition. The enzyme was incubated with the inhibitor for 20 minutes at 25° C. The enzymatic reaction was then initiated by the addition of 10 μL of freshly prepared 10 mM arachidonic acid (neutralized with KOH), vortexed and then incubated for 2 minutes (or, in some cases as indicated, 30 seconds) at 37° C. The reaction was terminated by the addition of 50 μL of 1 M HCl, vortexed and placed at room temperature. One hundred μL of a saturated stannous chloride solution (50 mg/mL of 0.1 M HCl) was added and the reaction mixture was allowed to stand at room temperature for at least 5 minutes.
(§2) The prostaglandins (PG) produced in the reactions were assayed, after a 2,000-fold dilution, using the Prostaglandin Screening EIA Kit (Cayman Chemical, Ann Arbor, Mich.). The assay contains an antibody with broad specificity for all the prostaglandin families (PGF, PGE, PGD, and thromboxane B-type) synthesized in the COX-1/COX-2 reactions. The synthesized prostaglandin competes with a PG-tagged acetylcholine esterase tracer for binding to the PG antibody. Binding of synthesized PG lowers the colorimetric development of the Ellman's Reagent (computed as %B/B0). The actual amount of synthesized PG was interpolated from a standard curve using known amounts of supplied prostaglandin E2 (PGE2) (PGE2 concentration vs. %B/B0). The data generated were the mean±standard deviation of triplicate wells in the EIA for a single reaction at a given inhibitor concentration.

[2] = biological target: T2, COX-1 (Homo sapiens, UniProt P23219); experiment: Human COX-1 enzyme activity (COX Inhibitor Screening Assay, prostaglandin EIA); format: biochemical; design: purchased Cayman Chemical; conditions: test compound at 100 μM
T2 sequence (P23219 24-599): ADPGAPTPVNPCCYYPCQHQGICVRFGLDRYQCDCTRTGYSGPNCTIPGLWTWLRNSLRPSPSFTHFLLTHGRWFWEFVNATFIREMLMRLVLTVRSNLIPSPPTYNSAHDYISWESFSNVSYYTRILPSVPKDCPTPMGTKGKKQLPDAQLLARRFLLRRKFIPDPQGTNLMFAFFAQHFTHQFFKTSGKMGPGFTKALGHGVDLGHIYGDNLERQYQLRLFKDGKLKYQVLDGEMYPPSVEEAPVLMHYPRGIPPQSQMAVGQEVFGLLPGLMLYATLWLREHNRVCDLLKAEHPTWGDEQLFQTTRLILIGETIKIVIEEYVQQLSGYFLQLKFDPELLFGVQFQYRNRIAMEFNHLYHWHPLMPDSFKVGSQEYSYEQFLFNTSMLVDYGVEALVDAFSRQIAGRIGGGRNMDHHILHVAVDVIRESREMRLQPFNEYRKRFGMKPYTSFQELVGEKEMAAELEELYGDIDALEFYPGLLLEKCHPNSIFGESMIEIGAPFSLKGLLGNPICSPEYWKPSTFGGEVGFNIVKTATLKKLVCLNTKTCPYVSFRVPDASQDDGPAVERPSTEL
Method: as §1
as §2, with “concentration. A plot of % of control (i.e., the solvent control without inhibitor) vs. test compound inhibitor concentration for both isoenzymes was used to determine the IC50 's for COX-1 and COX-2 for that test compound, when IC50's were calculated. The % inhibition for COX-1 and COX-2 enzyme activity by the test compounds at the indicated concentrations are given in Table 1.” for “concentration.”

[3] = biological target: T2, COX-1; experiment: COX-1 enzyme activity in human whole blood (A23187 stimulated, thromboxane B2 EIA); format: cell-based; design: Human blood (≈50 mL) from male or female donors who had not received any aspirin or NSAIDs for 14 days; endogenous in cells; host or cells: human whole blood from donors; conditions: test compound at 100 μM
Method: (§3) The assay for COX-1 and COX-2 enzyme activity, in the human whole blood was performed as described in Brideau et al., Inflamm Res., 45: 68-74 (1996)). Human blood (≈50 mL) from male or female donors who had not received any aspirin or NSAIDs for 14 days was collected at two local area blood donor centers and placed in polypropylene syringes containing sodium heparin (20 units per mL blood, final concentration). The blood was transported to the laboratory on ice packs and used within 1.5 hours of collection. Upon receipt in the laboratory, the blood was allowed to come to room temperature for 15 minutes prior to distribution in 1 mL aliquots per well of 24 well tissue culture plates. The plates were then placed on a gently rotating platform shaker in a 5% CO2 incubator at 37° C. for 15 minutes. Test compounds were dissolved in DMSO, at 1000 fold the final desired concentration, and further diluted, as indicated, in DMSO. One μL of each dilution of the test compound was added per well, in duplicate wells; wells not receiving test compound (e.g., basal, background or control wells) received 1 μL DMSO.
(§4) To induce COX-2, lipopolysaccharide (LPS) from E. coli (LPS, serotype 026:B6 or serotype 0127:B8, Sigma Chemical Co., St. Louis, Mo., Catalogue No. L3755 or L3129, respectively) was added at 10 μg/mL (2 μL of 5 mg/mL LPS in DMSO) to appropriate wells 15 minutes after the addition of the test compound. (Basal or background wells not incubated with LPS received 2 μL of DMSO.) For the stimulation of COX-1, the calcium ionophore, A23187 (free acid from Sigma Chemical Co., St. Louis, Mo., Catalogue No. C7522) was added at 25 μM (1 μL of 25 mM stock in DMSO) to separate wells 4.5 hours after the addition of the test compound. (Again, basal, background or control wells not stimulated with A23187 received 1 μL of DMSO.) At 5 hours after the addition of the test compound, all incubations were terminated by placement on ice and the addition of 2 mM EGTA (100 μL of 20 mM EGTA, tetrasodium, in PBS (phosphate buffered saline) without Ca^++ and Mg^++, pH 7.2)). The resulting solutions, were transferred by polyethylene transfer pipettes to 15 mL polypropylene centrifuge tubes and centrifuged at 1200 g for 10 minutes at 4° C. One hundred μL of plasma was removed from each blood sample and added to 1 mL of methanol in new 15 mL polypropylene centrifuge tubes, vortexed, and stored overnight at −20° C. The next day, the samples were centrifuged at 2000 g for 10 minutes at 4° C. and the supernatants transferred to glass tubes and evaporated to dryness. The samples were assayed for thromboxane B2 using EIA kits supplied by Cayman Chemical Co. (Ann Arbor, Mich., Catalogue No. 519031) in duplicate wells after reconstitution with EIA Buffer and appropriate dilution (2000 fold for COX-1 and 500 fold for Cox-2 samples).

[4] = biological target: T1, COX-2; experiment: COX-2 enzyme activity in human whole blood (LPS induced, thromboxane B2 EIA); format: cell-based; design: Human blood (≈50 mL) from male or female donors who had not received any aspirin or NSAIDs for 14 days; endogenous in cells; host or cells: human whole blood from donors, LPS-induced; conditions: test compound at 10 μM
Method: as §3, with “Human” for “The assay for COX-1 and COX-2 enzyme activity, in the human whole blood was performed as described in Brideau et al., Inflamm Res., 45: 68-74 (1996)). Human”
as §4, with “(Basal or background wells not incubated with LPS received 2 μL of DMSO.) For the stimulation of COX-1, the calcium ionophore, A23187 (free acid from Sigma Chemical Co., St. Louis, Mo., Catalogue No. C7522) was added at 25 μM (1 μL of 25 mM stock in DMSO) to separate wells 4.5 hours after the addition of the test compound.” left out, “dryness.” for “dryness. The samples were assayed for thromboxane B2 using EIA kits supplied by Cayman Chemical Co. (Ann Arbor, Mich., Catalogue No. 519031) in duplicate wells after reconstitution with EIA Buffer and appropriate dilution (2000 fold for COX-1 and 500 fold for Cox-2 samples).”

inhibition at 100 µM [3] [%] | melting point [°C] | inhibition at 10 µM [4] [%] | Compound | COX-2 Inhibition (% at 10 μM) [1] [%] | COX-1 Inhibition (% at 100 μM) [2] [%] | COX-1 Inhibition (% at 100 μM) [3] [%]
– | – | – | CS(=O)(=O)c1ccc(-c2cc3c(cc2C(=O)c2cccnc2)OCO3)cc1 [Example 6d, 6-(4-(Methylsulfonyl)phenyl)(2H-benzo(d)1,3-dioxolan-5-yl) 3-pyridyl ketone] | 20 | 20 | –
– | – | – | CS(=O)(=O)c1ccc(-c2cc3c(cc2CN2CCCC(CO)C2)OCO3)cc1 (stereo not shown) [Example 8b, 1-(6-((3-(Hydroxymethyl)piperidyl)methyl)(2H-benzo(3,4-d)1,3-dioxolan-5-yl))-4-(methylsulfonyl)benzene] | 30 | 0 | –
– | – | – | CS(=O)(=O)c1ccc(-c2cc3c(cc2CN2CCCC(CO[N+](=O)[O-])C2)OCO3)cc1 (stereo not shown) [Example 8c, 4-(Methylsulfonyl)-1-(6-((3-((nitrooxy)methyl)piperidyl)methyl)(2H-benzo(3,4-d) 1,3-dioxolan-5-yl))benzene] | 80 | 25 | –
– | – | – | CS(=O)(=O)c1ccc(-c2cc3c(cc2CC2CCCC2)OCO3)cc1 [Example 10b, 4-(6-(Cyclopenthylmethyl)(2H-benzo(3,4-d)1,3-dioxolan-5-yl))-1-(methylsulfonyl)benzene] | 70 | 20 | –
– | – | – | CS(=O)(=O)c1ccc(-c2cc3c(cc2C=C2CCCCCC2)OCO3)cc1 [Example 11b, 4-(6-(Cycloheptylidenemethyl)(2H-benzo(3,4-d)1,3-dioxolan-5-yl))-1-(methylsulfonyl) benzene] | – | 10 | 40
70 | 160 to 162 | 40 | CS(=O)(=O)c1ccc(-c2cc3c(cc2Cc2cc(F)cc(F)c2)OCCO3)cc1 [Example 20, 1-(7-((3,5-Difluorophenyl)methyl)(2H, 3H-benzo(3,4-e)1,4-dioxin-6-yl))-4-(methylsulfonyl)benzene] | – | – | –
50 | 238 to 241 | 30 | CS(=O)(=O)c1ccc(-c2cc3c(cc2Cc2cc(F)cc(F)c2)OC(C(N)=O)CO3)cc1 (stereo not shown) [Example 21, 7-((3,5-Difluorophenyl)methyl)-6-(4-(methylsulfonyl)phenyl)-2H, 3H-benzo(e)1,4-dioxin-2-carboxamide] | – | – | –
90 | 191 to 193 | 55 | CS(=O)(=O)c1ccc(-c2cc3c(cc2C(=O)c2cc(F)cc(F)c2)OCCO3)cc1 [Example 22, 3,5-Difluorophenyl 7-(4-(methylsulfonyl)phenyl)(2H, 3H-benzo(e)1,4-dioxin-6-yl) ketone] | – | – | –
